Data from PubChem BioAssay AID1963963 (Molecular Pharmacology Branch, DTP, NCI, 2024).
pIC50: −log10 of the molar value.

Test system: 958667-338-R-J2-PDC tumor spheroids viability
Assay: Anticancer human tumor 958667-338-R-J2-PDC patient-derived colon adenocarcinoma cell line growth inhibition [PI3K]
Conditions: spheroids with HUVEC and MSC; for pIC50: curve of first compound; for viability, T/C: stronger effect = lower value
In short: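 Complex 3D spheroids (cancer cells + endothelial HUVEC + mesenchymal stem cells); drug pairs of targeted agent x inavolisib/alpelisib/duvelisib/copanlisib; half-log series from ~Cmax, max 10 microM if Cmax unknown; endpoint viability.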
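Further: spheroids exposed to compounds for seven days before readout.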

Cn1cnc2c(F)c(Nc3ccc(Br)cc3Cl)c(C(=O)NOCCO)cc21 + COc1c(OCCCN2CCOCC2)ccc2c3n(c(=NC(=O)c4cnc(N)nc4)nc12)CCN3
pIC50 (second compound 0.00316 µM): 6.59 | pIC50 (second compound 0.01 µM): 6.87 | pIC50 (second compound 0.0316 µM): 7.42 | pIC50 (second compound 0.1 µM): 7.69 | pIC50 (second compound 0.316 µM): > 8.02 | pIC50 (second compound 1 µM): > 8.02 | viability, T/C (second compound 0.00316 µM, first compound 0.00949 µM): 81.6% | viability, T/C (second compound 0.00316 µM, first compound 0.03 µM): 81.9% | viability, T/C (second compound 0.00316 µM, first compound 0.0949 µM): 75.2% | viability, T/C (second compound 0.00316 µM, first compound 0.3 µM): 44.6% | viability, T/C (second compound 0.00316 µM, first compound 0.949 µM): 26.7% | viability, T/C (second compound 0.00316 µM, first compound 3 µM): 17.3% | viability, T/C (second compound 0.01 µM, first compound 0.00949 µM): 87.8% | viability, T/C (second compound 0.01 µM, first compound 0.03 µM): 65.3% | viability, T/C (second compound 0.01 µM, first compound 0.0949 µM): 62.1% | viability, T/C (second compound 0.01 µM, first compound 0.3 µM): 34.7% | viability, T/C (second compound 0.01 µM, first compound 0.949 µM): 24.9% | viability, T/C (second compound 0.01 µM, first compound 3 µM): 11.6% | viability, T/C (second compound 0.0316 µM, first compound 0.00949 µM): 71.6% | viability, T/C (second compound 0.0316 µM, first compound 0.03 µM): 46.2% | viability, T/C (second compound 0.0316 µM, first compound 0.0949 µM): 40.4% | viability, T/C (second compound 0.0316 µM, first compound 0.3 µM): 28% | viability, T/C (second compound 0.0316 µM, first compound 0.949 µM): 17.4% | viability, T/C (second compound 0.0316 µM, first compound 3 µM): 6.46% | viability, T/C (second compound 0.1 µM, first compound 0.00949 µM): 67.8% | viability, T/C (second compound 0.1 µM, first compound 0.03 µM): 40.9% | viability, T/C (second compound 0.1 µM, first compound 0.0949 µM): 23.8% | viability, T/C (second compound 0.1 µM, first compound 0.3 µM): 16.4% | viability, T/C (second compound 0.1 µM, first compound 0.949 µM): 8.73% | viability, T/C (second compound 0.1 µM, first compound 3 µM): 2.61% | viability, T/C (second compound 0.316 µM, first compound 0.00949 µM): 34.6% | viability, T/C (second compound 0.316 µM, first compound 0.03 µM): 25.5% | viability, T/C (second compound 0.316 µM, first compound 0.0949 µM): 13.7% | viability, T/C (second compound 0.316 µM, first compound 0.3 µM): 6.91% | viability, T/C (second compound 0.316 µM, first compound 0.949 µM): 3.48% | viability, T/C (second compound 0.316 µM, first compound 3 µM): 1.27% | viability, T/C (second compound 1 µM, first compound 0.00949 µM): 13.5% | viability, T/C (second compound 1 µM, first compound 0.03 µM): 10.8% | viability, T/C (second compound 1 µM, first compound 0.0949 µM): 5.1% | viability, T/C (second compound 1 µM, first compound 0.3 µM): 3.51% | viability, T/C (second compound 1 µM, first compound 0.949 µM): 2.89% | viability, T/C (second compound 1 µM, first compound 3 µM): 1%

CC(C)n1nc(-c2ccc3oc(N)nc3c2)c2c(N)ncnc21 + CC(Nc1ccc2c(c1)OCCn1cc(N3C(=O)OCC3C(F)F)nc1-2)C(N)=O
pIC50 (second compound 0.00316 µM): 7.19 | pIC50 (second compound 0.01 µM): 7.19 | pIC50 (second compound 0.0316 µM): 7.36 | pIC50 (second compound 0.1 µM): 7.28 | pIC50 (second compound 0.316 µM): 7.54 | pIC50 (second compound 1 µM): 8.57 | viability, T/C (second compound 0.00316 µM, first compound 0.000316 µM): 103% | viability, T/C (second compound 0.00316 µM, first compound 0.001 µM): 120% | viability, T/C (second compound 0.00316 µM, first compound 0.00316 µM): 92.5% | viability, T/C (second compound 0.00316 µM, first compound 0.01 µM): 91.7% | viability, T/C (second compound 0.00316 µM, first compound 0.0316 µM): 80.8% | viability, T/C (second compound 0.00316 µM, first compound 0.1 µM): 33.3% | viability, T/C (second compound 0.01 µM, first compound 0.000316 µM): 109% | viability, T/C (second compound 0.01 µM, first compound 0.001 µM): 109% | viability, T/C (second compound 0.01 µM, first compound 0.00316 µM): 95.9% | viability, T/C (second compound 0.01 µM, first compound 0.01 µM): 94.7% | viability, T/C (second compound 0.01 µM, first compound 0.0316 µM): 71% | viability, T/C (second compound 0.01 µM, first compound 0.1 µM): 37.1% | viability, T/C (second compound 0.0316 µM, first compound 0.000316 µM): 99.5% | viability, T/C (second compound 0.0316 µM, first compound 0.001 µM): 74.3% | viability, T/C (second compound 0.0316 µM, first compound 0.00316 µM): 81.5% | viability, T/C (second compound 0.0316 µM, first compound 0.01 µM): 65% | viability, T/C (second compound 0.0316 µM, first compound 0.0316 µM): 64.5% | viability, T/C (second compound 0.0316 µM, first compound 0.1 µM): 32.9% | viability, T/C (second compound 0.1 µM, first compound 0.000316 µM): 79.3% | viability, T/C (second compound 0.1 µM, first compound 0.001 µM): 86.9% | viability, T/C (second compound 0.1 µM, first compound 0.00316 µM): 85.9% | viability, T/C (second compound 0.1 µM, first compound 0.01 µM): 75.3% | viability, T/C (second compound 0.1 µM, first compound 0.0316 µM): 68% | viability, T/C (second compound 0.1 µM, first compound 0.1 µM): 28.7% | viability, T/C (second compound 0.316 µM, first compound 0.000316 µM): 58.2% | viability, T/C (second compound 0.316 µM, first compound 0.001 µM): 59.8% | viability, T/C (second compound 0.316 µM, first compound 0.00316 µM): 66.2% | viability, T/C (second compound 0.316 µM, first compound 0.01 µM): 65.1% | viability, T/C (second compound 0.316 µM, first compound 0.0316 µM): 48.9% | viability, T/C (second compound 0.316 µM, first compound 0.1 µM): 21.8% | viability, T/C (second compound 1 µM, first compound 0.000316 µM): 65.7% | viability, T/C (second compound 1 µM, first compound 0.001 µM): 53.8% | viability, T/C (second compound 1 µM, first compound 0.00316 µM): 45.6% | viability, T/C (second compound 1 µM, first compound 0.01 µM): 44.3% | viability, T/C (second compound 1 µM, first compound 0.0316 µM): 35.4% | viability, T/C (second compound 1 µM, first compound 0.1 µM): 23.5%

CC1(C)CCC(Nc2ncc(C(F)(F)F)c(-c3c[nH]c4c(P(C)(C)=O)c(C#N)ccc34)n2)CN1 (centres undefined)
viability, T/C (compound 0.0316 µM): 97.9% [middle of 4 runs] | viability, T/C (compound 1 µM): 66.5% [middle of 4 runs] | viability, T/C (compound 3.16 µM): 64.5% [middle of 4 runs] | viability, T/C (compound 10 µM): 36.4% [middle of 4 runs] | IC50 (curve of compound): 5.09 µM [middle of 4 runs]
